{"source": "patent US11369593B2", "about": "(Texas Tech University System, priority 2017, dated 2022)", "key": {"PC12 cells [1]": {"system": "PC12 cells", "assay": "Etoposide-induced apoptosis in PC12 cells, cell viability", "format": "cell-based", "conditions": "for viability at 0.1 µM / viability at 0.3 µM / viability at 1 µM / viability at 3 µM / viability at 10 µM / viability at 30 µM: Rattus norvegicus, PC-12, etoposide-induced apoptosis; for viability at 0.1 µM: 0.1 μM compound, vehicle 52.1 ± 7.32; for viability at 0.3 µM: 0.3 μM compound; for viability at 1 µM: 1 μM compound, read-out: % Viability 1 μM; for viability at 3 µM: 3 μM compound, read-out: % Viability 3 μM; for viability at 10 µM: 10 μM compound, read-out: % Viability 10 μM; for viability at 30 µM: 30 μM compound, read-out: % Viability 30 μM; for protective activity in WT PC12 etoposide assay: WT PC12 cells"}, "PC12 cells [2]": {"system": "PC12 cells", "assay": "Serum starvation-induced apoptosis in PC12 cells, cell viability", "format": "cell-based", "conditions": "Rattus norvegicus, PC-12, serum starvation-induced apoptosis, PC12 cells; for viability at 1 µM: 1 μM compound, vehicle 55.04 ± 8.99, read-out: % Viability 1 μM; for viability at 3 µM: 3 μM compound, read-out: % Viability 3 μM; for viability at 10 µM: 10 μM compound, read-out: % Viability 10 μM; for viability at 30 µM: 30 μM compound, read-out: % Viability 30 μM"}, "[3]": {"system": "CLN3 siRNA knock down PC12 cells", "assay": "Protective effect in siRNA CLN3 knock down PC12 cells", "format": "cell-based", "conditions": "FIG. 3A", "source_text": "(§1) FIGS. 3A and 3B show the neuroprotective effect of selected compounds in phenotypic cell lines. In FIG. 3A, the protective effect is shown in siRNA CLN3 knock down PC12 cells. In FIG. 3B the protective effect is shown in wild-type (WT) and CLN3 knock down mouse fibroblasts. Values are represented as mean±SD. *P<0.05, **p<0.01, ***p<0.001 compared to vehicle control, unpaired student t test.\n(§2) Protective Effect in Phenotypic Cell Lines. […] The inventors screened a number of compounds in both neuron-like CLN3 siRNA knock down PC12 cells (FIG. 3A) and CLN3 knockdown mouse fibroblasts (FIG. 3B) as phenotypic models of JNCL. […] FIGS. 3A and 3B show the neuroprotective effect of selected compounds in phenotypic cell lines. In FIG. 3A, the protective effect is shown in siRNA CLN3 knock down PC12 cells. In FIG. 3B the protective effect is shown in wild-type (WT) and CLN3 knock down mouse fibroblasts. Values are represented as mean±SD. *P<0.05, **p<0.01, ***p<0.001 compared to vehicle control, unpaired student t test. […] Selected derivatives show greater protective effect than flupirtine in patient lympoblast cells in CLN1, CLN2, CLN3, CLN6 and CLN8 disease (FIGS. 4A to 4E). FIGS. 4A to 4E show the percentage of patient lymphoblast cells (%), using Trypan Blue dye with Flupirtine (20 μM, vehicle %1 EtOH), drug 3 (20 μM, vehicle %1 EtOH), drug 5 (50 μM, vehicle %4 DMSO) or drug 6 (20 μM, vehicle %4 DMSO) at 24 h. CLN1 (FIG. 4A), CLN2 (FIG. 4B), CLN3 (FIG. 4C), CLN6 (FIG. 4D), and CLN8 (FIG. 4E)."}, "[4]": {"system": "CLN3 knockdown mouse fibroblasts", "assay": "Protective effect in CLN3 knock down mouse fibroblasts", "format": "cell-based", "conditions": "FIG. 3B", "source_text": "as §1, §2"}, "PC12 cells [5]": {"system": "PC12 cells", "assay": "ROS in PC12 cells, CellROX green / DAPI staining after H2O2", "format": "cell-based", "conditions": "400 μM H2O2 for 4 hours, FIG. 5A", "protocol": "PC12 cells stained with CellROX and DAPI-blue nuclear stain. Greater intensity of green fluorescence indicates greater levels of ROS. Visualized through a microscope (40× magnification, bar=100 μM).\nWhile flupirtine and retigabine are known antioxidants the inventors have shown (FIGS. 5A and 5B) that neuroprotective derivatives operate by a different mechanism of action. […] PC12 cells stained with CellROX and DAPI-blue nuclear stain. Greater intensity of green fluorescence indicates greater levels of ROS. Visualized through a microscope (40× magnification, bar=100 μM)."}, "primary neurons": {"system": "primary neurons", "conditions": "cited from earlier work"}, "IMR-90-derived neurons": {"system": "IMR-90-derived neurons", "format": "cell-based, human", "source_text": "The disclosed technology encompasses multiple derivatives of both flupirtine and retigabine. […] The inventors provide further insight into the derivatives from both original molecules. […] By way of explanation, and in no way a limitation of the present invention, the inventors have shown that the derivatives are active in two ways: they (1) upregulate expression of the anti-apoptotic protein Bcl-2 and ceramide pathway synthesis enzymes, and (2) activate autophagy."}}, "data": [{"molecule": "CCOC(=O)Nc1ccc(NCc2ccc(F)cc2)nc1N", "note": "[NK-1-4, Ethyl (2-amino-6-((4-fluorobenzyl)amino)pyridin-3-yl)carbamate, reference compound]", "values": [{"measurement": "viability at 0.1 µM", "setting": "PC12 cells [1]; PC12 cells", "value": "67 ± 5.88", "unit": "%"}, {"measurement": "viability at 0.3 µM", "setting": "PC12 cells [1]; PC12 cells", "value": "64.4 ± 9.35", "unit": "%"}, {"measurement": "viability at 1 µM", "setting": "PC12 cells [1]; PC12 cells", "value": "73.2 ± 13.9", "unit": "%"}, {"measurement": "viability at 3 µM", "setting": "PC12 cells [1]; PC12 cells", "value": "78.1 ± 12.9", "unit": "%"}, {"measurement": "viability at 10 µM", "setting": "PC12 cells [1]; PC12 cells", "value": "76.9 ± 17.4", "unit": "%"}, {"measurement": "viability at 30 µM", "setting": "PC12 cells [1]; PC12 cells", "value": "71.3 ± 18", "unit": "%"}, {"measurement": "viability at 1 µM", "setting": "PC12 cells [2]", "value": "85.4 ± 14", "unit": "%"}, {"measurement": "viability at 3 µM", "setting": "PC12 cells [2]", "value": "82 ± 14.5", "unit": "%"}, {"measurement": "viability at 10 µM", "setting": "PC12 cells [2]", "value": "81.5 ± 13", "unit": "%"}, {"measurement": "viability at 30 µM", "setting": "PC12 cells [2]", "value": "89.9 ± 17.1", "unit": "%"}, {"measurement": "protective activity", "setting": "[3]", "value": "protective activity"}, {"measurement": "protective activity", "setting": "[4]", "value": "protective activity"}, {"measurement": "amelioration of reactive oxygen species (ROS)", "setting": "PC12 cells [5]", "value": "do ameliorate ROS"}, {"measurement": "concentration showing protective activity against Abeta 25-35 apoptotic cell death", "setting": "primary neurons", "value": 1, "unit": "µg/mL"}]}, {"molecule": "CCOC(=O)Nc1ccc(NCc2ccc(Cl)cc2)nc1N", "note": "[NK-4-3, Ethyl (2-amino-6-((4-chlorobenzyl)amino)pyridin-3-yl)carbamate]", "values": [{"measurement": "viability at 1 µM", "setting": "PC12 cells [1]; PC12 cells", "value": "65.7 ± 16.2", "unit": "%"}, {"measurement": "viability at 3 µM", "setting": "PC12 cells [1]; PC12 cells", "value": "64.3 ± 4.28", "unit": "%"}, {"measurement": "viability at 10 µM", "setting": "PC12 cells [1]; PC12 cells", "value": "52.6 ± 10.3", "unit": "%"}, {"measurement": "viability at 30 µM", "setting": "PC12 cells [1]; PC12 cells", "value": "41.5 ± 6.14", "unit": "%"}, {"measurement": "protective activity in WT PC12 etoposide assay", "setting": "PC12 cells [1]", "value": "less active than compounds NK-10-1 and NK-12-1"}, {"measurement": "viability at 1 µM", "setting": "PC12 cells [2]", "value": "78 ± 9.61", "unit": "%"}, {"measurement": "viability at 3 µM", "setting": "PC12 cells [2]", "value": "79.3 ± 5.5", "unit": "%"}, {"measurement": "viability at 10 µM", "setting": "PC12 cells [2]", "value": "86.5 ± 11.5", "unit": "%"}, {"measurement": "viability at 30 µM", "setting": "PC12 cells [2]", "value": "86.6 ± 5.32", "unit": "%"}, {"measurement": "activity in iPSC/IMR-90-derived neurons", "setting": "IMR-90-derived neurons; 15 ug/mL etoposide for 36 hours, FIG. 2", "value": "less active"}]}, {"molecule": "Nc1nc(NCc2ccc(F)cc2)ccc1NC(=O)OCc1ccccc1", "note": "[NK-10-1, Benzyl 6-(4-fluorobenzylamino)-2-aminopyridin-3-ylcarbamate]", "values": [{"measurement": "viability at 1 µM", "setting": "PC12 cells [1]; PC12 cells", "value": "60.1 ± 7.91", "unit": "%"}, {"measurement": "viability at 3 µM", "setting": "PC12 cells [1]; PC12 cells", "value": "82 ± 4.43", "unit": "%"}, {"measurement": "viability at 10 µM", "setting": "PC12 cells [1]; PC12 cells", "value": "66.2 ± 6.26", "unit": "%"}, {"measurement": "viability at 30 µM", "setting": "PC12 cells [1]; PC12 cells", "value": "57.4 ± 2.24", "unit": "%"}, {"measurement": "protective activity in WT PC12 etoposide assay", "setting": "PC12 cells [1]", "value": "greater neuroprotective activity"}, {"measurement": "viability at 1 µM", "setting": "PC12 cells [2]", "value": "93.4 ± 12.4", "unit": "%"}, {"measurement": "viability at 3 µM", "setting": "PC12 cells [2]", "value": "90.4 ± 11.2", "unit": "%"}, {"measurement": "viability at 10 µM", "setting": "PC12 cells [2]", "value": "92.7 ± 12.8", "unit": "%"}, {"measurement": "viability at 30 µM", "setting": "PC12 cells [2]", "value": "96.1 ± 15.3", "unit": "%"}, {"measurement": "protective activity", "setting": "[3]", "value": "greater activity than flupirtine"}, {"measurement": "protective activity", "setting": "[4]", "value": "greater activity than flupirtine"}, {"measurement": "amelioration of reactive oxygen species (ROS)", "setting": "PC12 cells [5]", "value": "no amelioration of reactive oxygen species (ROS)"}]}, {"molecule": "C=CCOC(=O)Nc1ccc(NCc2ccc(F)cc2)nc1N", "note": "[NK-12-1, Allyl 6-(4-fluorobenzylamino)-2-aminopyridin-3-ylcarbamate]", "values": [{"measurement": "viability at 1 µM", "setting": "PC12 cells [1]; PC12 cells", "value": "65.5 ± 8.19", "unit": "%"}, {"measurement": "viability at 3 µM", "setting": "PC12 cells [1]; PC12 cells", "value": "86.8 ± 9.05", "unit": "%"}, {"measurement": "viability at 10 µM", "setting": "PC12 cells [1]; PC12 cells", "value": "67.5 ± 22.6", "unit": "%"}, {"measurement": "viability at 30 µM", "setting": "PC12 cells [1]; PC12 cells", "value": "45.2 ± 8.92", "unit": "%"}, {"measurement": "protective activity in WT PC12 etoposide assay", "setting": "PC12 cells [1]", "value": "greater neuroprotective activity"}, {"measurement": "viability at 1 µM", "setting": "PC12 cells [2]", "value": "108 ± 10.3", "unit": "%"}, {"measurement": "viability at 3 µM", "setting": "PC12 cells [2]", "value": "88.6 ± 8.26", "unit": "%"}, {"measurement": "viability at 10 µM", "setting": "PC12 cells [2]", "value": "82.2 ± 11.8", "unit": "%"}, {"measurement": "viability at 30 µM", "setting": "PC12 cells [2]", "value": "92.6 ± 12.3", "unit": "%"}, {"measurement": "protective activity", "setting": "[3]", "value": "greater activity than flupirtine"}, {"measurement": "protective activity", "setting": "[4]", "value": "greater activity than flupirtine"}, {"measurement": "amelioration of reactive oxygen species (ROS)", "setting": "PC12 cells [5]", "value": "no amelioration of reactive oxygen species (ROS)"}]}, {"molecule": "CCOC(=O)Nc1ccc(NCc2ccc(C(F)(F)F)cc2)nc1N", "note": "[NK-40-3, Ethyl (2-amino-6-((4-(trifluoromethyl)benzyl)amino)pyridin-3-yl)carbamate]", "values": [{"measurement": "concentration providing protection from etoposide-induced cell death", "setting": "PC12 cells [1]; PC12 cells", "value": 0.1, "unit": "µM"}, {"measurement": "viability at 0.1 µM", "setting": "PC12 cells [1]; PC12 cells", "value": "85.8 ± 11.8", "unit": "%"}, {"measurement": "viability at 0.3 µM", "setting": "PC12 cells [1]; PC12 cells", "value": "109 ± 17.3", "unit": "%"}, {"measurement": "viability at 1 µM", "setting": "PC12 cells [1]; PC12 cells", "value": "82.7 ± 8.82", "unit": "%"}, {"measurement": "viability at 3 µM", "setting": "PC12 cells [1]; PC12 cells", "value": "71.5 ± 4.99", "unit": "%"}, {"measurement": "viability at 10 µM", "setting": "PC12 cells [1]; PC12 cells", "value": "97.3 ± 22.8", "unit": "%"}, {"measurement": "viability at 30 µM", "setting": "PC12 cells [1]; PC12 cells", "value": "106 ± 15.8", "unit": "%"}, {"measurement": "concentration with neuroprotective activity (as low as)", "setting": "IMR-90-derived neurons; human IMR-90-derived neurons", "value": 0.1, "unit": "µM"}]}]}
